The test system of data set [1] is PC-3 xenograft bearing mice. Also noted: AUC Kidneys: unit not given beside the values. The conditions noted are these: mouse, in vivo.
The next data set has as its target T1, GRPR (Homo sapiens, UniProt P30550).
T1 construct: host or cells: PC-3 (human prostate cancer cell line)
Kind of data set: Receptor affinity and kinetics by LigandTracer on living PC-3 cells. The data set is classed as binding. On the procedure:
Receptor affinity was measured using a LigandTracer yellow (Ridgeview Instruments AB, Uppsala, Sweden). For each measurement 3 million PC-3 cells were seeded in 100 mm dishes (Corning St. Oneonta, N.Y., USA) the day before the experiment. Three concentrations for each radioligand were tested (1, 3 and 5 nM) in order to determine the association values. After reaching plateau, the media containing the radioligands were removed, fresh complete media were introduced in the plates and the dissociation phase was measured overnight.

The test system of data set [2] is PC-3 xenograft bearing mice. Briefly: Biodistribution in PC-3 xenograft bearing mice. The settings on record: mouse, in vivo.
Experimental: The biodistribution profile for the four radioligands was determined in female Balb/c nu/nu mice. All the animals were subcutaneously implanted with a suspension of 8 × 10^6 PC-3 cells in the right hind leg. After approximately 3–4 weeks, tumours were developed and animals were randomized in groups of four (with the exception of the Block groups comprising instead 3 animals). For each radioligand 3 groups were used, namely, 4 h, 23 h pi and 4 h Block. Each animal received 2.82 mg of sacubitril (in the form of 12 mg of an Entresto pill suspension) per os and after 30 min, a bolus iv injection of 100–110 kBq of [^177Lu]Lu-peptide (corresponding to 100 pmol total peptide). Animals were euthanized at the predetermined time points and tissues of interest and xenografts were collected, weighted and their activity content was measured in the gamma counter. […] Statistical analysis was performed using GraphPad Prism 10 and a two-way ANOVA with Tuckey’s post hock analysis. Area under curve for kidneys and tumours was estimated by fitting a one-phase decay model and calculating the area under the resulting equation.
The subject of a further data set is tumours. The conditions noted are these: ref Dumont et al. [2013], cited from earlier work. The source says:
For [^177Lu]Lu-RM2 (Dumont et al. [2013]), the reported dose per animal was 250 pmol peptide corresponding to 4.63 MBq.

For data set [3], the system named is PC-3 xenograft bearing mice. The conditions noted are these: 4 h pi, ref Dalm et al. [2017], cited from earlier work. The source says:
(§1) In comparison with [^177Lu]Lu-NeoBomb1 (Dalm et al. [2017]; Nock et al. [2017]), [^177Lu]Lu-AU-SAR-M1 utilizes a different chelator (DOTAGA for AU-SAR-M1 and DOTA for NeoBomb1).

For data set [4] the following is noted: 5 min pi, ref Nock et al. [2017]; cited from earlier work.
Text: as §1

Setting [5] is: living PC-3 cells, 1:1 model used (footnote).

T1 sequence (P30550 whole entry): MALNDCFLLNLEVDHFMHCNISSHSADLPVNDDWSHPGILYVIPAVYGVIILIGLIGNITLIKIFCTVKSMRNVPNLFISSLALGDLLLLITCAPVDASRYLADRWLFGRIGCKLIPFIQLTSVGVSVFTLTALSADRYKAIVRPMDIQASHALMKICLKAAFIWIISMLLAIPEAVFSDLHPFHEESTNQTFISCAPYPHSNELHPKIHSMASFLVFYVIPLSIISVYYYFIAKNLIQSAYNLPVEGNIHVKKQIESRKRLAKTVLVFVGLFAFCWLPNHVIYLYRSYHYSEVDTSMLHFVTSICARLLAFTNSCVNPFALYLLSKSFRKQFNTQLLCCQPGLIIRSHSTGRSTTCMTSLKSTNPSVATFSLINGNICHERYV

On to `CCNC(=O)[C@H](CC(C)C)NC(=O)[C@H](Cc1c[nH]cn1)NC(=O)CN(C)C(=O)[C@@H](NC(=O)[C@H](C)NC(=O)[C@H](Cc1c[nH]c2ccccc12)NC(=O)[C@H](CCC(N)=O)NC(=O)[C@@H](Cc1ccccc1)NC(=O)COCC(=O)Nc1ccc(CNC(=O)[C@H](CCCNC(=N)N)NC(=O)CCC(C(=O)O)N2CCN(CC(=O)O)CCN(CC(=O)O)CCN(CC(=O)O)CC2)cc1)C(C)C` (some centres unmarked) [[^177Lu]Lu-AU-SAR-M2, DOTAGA-Arg-AMA-DIG-SAR, metal not drawn], for which, in data set [1], the “AUC Kidneys” value stood at 68; the “AUC Tumour” value was 259; the “AUC ratio Tumour/Kidneys” value came to 3.8; the “Tumour-to-Kidneys AUC ratio, fold higher than [^177Lu]Lu-AU-RM26-M4” value worked out at 1.6 fold. In data set [1], the “Tumour-to-Kidneys AUC ratio, fold higher than [^177Lu]Lu-AU-SAR-M1” value is 1.4 fold. On GRPR (setting [5]), the ka1 came to 90900 M⁻¹ s⁻¹ and the kd1 is reported as 6.44 × 10^–7 s^−1.
Regarding `CC(C)C[C@H](NC(=O)C[C@H](O)[C@H](CC(C)C)NC(=O)[C@H](Cc1c[nH]cn1)NC(=O)CN(C)C(=O)[C@@H](NC(=O)[C@H](C)NC(=O)[C@H](Cc1c[nH]c2ccccc12)NC(=O)[C@H](CCC(N)=O)NC(=O)[C@@H](Cc1ccccc1)NC(=O)CN1CCC(NC(=O)COCCOCCNC(=O)CCC(C(=O)O)N2CCN(CC(=O)O)CCN(CC(=O)O)CCN(CC(=O)O)CC2)CC1)C(C)C)C(N)=O` (some centres unmarked) [[^177Lu]Lu-AU-RM26-M2, DOTAGA-PEG2-Pip-[NMe-Gly^11]RM26, metal not drawn], in data set [1], the “AUC Kidneys” value stood at 56 and the “AUC Tumour” value came to 62.
As to `CCNC(=O)[C@H](CC(C)C)NC(=O)[C@H](Cc1c[nH]cn1)NC(=O)CN(C)C(=O)[C@@H](NC(=O)[C@H](C)NC(=O)[C@H](Cc1c[nH]c2ccccc12)NC(=O)[C@H](CCC(N)=O)NC(=O)[C@@H](Cc1ccccc1)NC(=O)COCC(=O)Nc1ccc(CNC(=O)CCC(C(=O)O)N2CCN(CC(=O)O)CCN(CC(=O)O)CCN(CC(=O)O)CC2)cc1)C(C)C` (some centres unmarked) [[^177Lu]Lu-AU-SAR-M1, DOTAGA-AMA-DIG-SAR, metal not drawn], in data set [1], the “AUC Kidneys” value amounted to 45, the “AUC Tumour” value came out at 242 and the “AUC ratio Tumour/Kidneys” value came to 5.4. On GRPR (living PC-3 cells, 1, 3 and 5 nM, 1:2 model), this compound gave a ka1 of 65700 M⁻¹ s⁻¹. Further, on GRPR (living PC-3 cells, 1:2 model), the ka2 turned out to be 614000 M⁻¹ s⁻¹, the kd1 is recorded as 1.76 × 10^–6 s^−1 and the kd2 is reported as 7.43 × 10^–4 s^−1. Also, in data set [2], the “tumour-to-kidney ratio for the estimated AUC, times better than the next candidate” value is 1.4 times.
For “DOTA-4-amino-1-carboxymethyl-piperidine-DPhe-Gln-Trp-Ala-Val-Gly-His-Sta-Leu-NH2 [[^177Lu]Lu-RM2]”, in the data set on tumours (4 h pi, 250 pmol peptide, 4.63 MBq), the tumour uptake is recorded as 10.97 ± 0.99 %IA/g. In the data set on tumours (4 h pi), the “activity uptake in pancreas” value is on record as 0.70 ± 0.12 %IA/g. For the same compound, in the data set on tumours (24 h pi relative to 4 h pi), the “activity remaining in the tumours” value was “approximately 50%”.
On to “DOTA-AMA-DIG-DPhe-Gln-Trp-Ala-Val-Gly-His-NHCH[(CH2-CH(CH3)2]2 [[^177Lu]Lu-NeoBomb1, Lu-177-based GRPR-antagonist already tested in patients]”, for which the tumour values in data set [3] (PC-3 xenograft bearing mice, 200 pmol – 1 MBq) is reported as 17.9 ± 3.3 %IA/g. For the same compound, the kidneys uptake in data set [3] was 2.5%. Further, the “intact peptide detected in mice circulation” value in data set [4] is 95%.

The values are drawn from PMC12314183, “RM2 and DB15 analogues bearing [^177Lu]Lu-DOTAGA via different linkers, as radiotherapeutics: a head-to-head comparative study” (EJNMMI Radiopharmacy and Chemistry, 2025).
